Data as given in patent US11465972B2, “Inhibitors of oxidized low-density lipoprotein receptor 1 and methods of use thereof” (United States Government as represented by the Department …, priority 2015, dated 2022).
Entries after “also recorded” stand apart in the source; their conditions may differ.

How the values were obtained:
Format in all cases: cell-based, human
[1] = test system: adhesion of monocytes to HUVECs; experiment: Monocyte adhesion assay on HUVECs; details: 200 nM; for effect on monocyte adhesion to HUVECs (in words): ox-LDL treated
Procedure: FIG. 4A, FIG. 4B, FIG. 4C, FIG. 4D and FIG. 4E depict the effect of lead molecules on ox-LDL-induced the activation of MAPKs in HUVECs, VCAM-1 expression and monocyte adhesion onto HUVECs. […] (FIG. 4B) Western blot analyses showing phospho-p38MAPK expression in HUVECs following exposure to 200 nM of each compound for 30 min, and subsequently exposed to 5 μg/mL ox-LDL for 6 hours. […] (FIG. 4D) The variation of VCAM-1 mRNA expression levels with different concentrations of the led compounds. The concentrations are indicated on the X-axis and the VCAM-1 mRNA levels are shown on the Y-axis. The plots for all five molecules are shown in separate colors. […] Graphs show data as mean (±SD); n=3 (for Western blot and PCR assays) or n=20 (for monocyte adhesion assay). *P<0.01 vs. control; #P<0.01 or <0.05 vs. ox-LDL group.
The ox-LDL-induced expression of adhesion molecules, such as VCAM-1, facilitates the adhesion of inflammatory cells, such as monocytes.
Human monocytes were isolated from blood from the healthy donors and cultured in DMEM supplemented with 10% FBS. HUVECs were plated into 6-well plates. When the cells reached 70-80% confluence, they were treated with 200 nM of each of 5 molecules for 30 min, and subsequently exposed to […] ox-LDL for 6 h. After washing with PBS, the medium was replaced, and then monocytes ([…]) were added to each well (4 wells/group) onto HUVECs. Thirty minutes later, the medium containing monocytes were aspired and the unattached monocytes were carefully washed out with PBS. Five fields of each well were randomly captured under a microscope. The number of adherent monocyte was counted and averaged.

HUVECs = experiment: Dil-ox-LDL uptake by HUVECs (flow cytometry); details: for effect on ox-LDL uptake by HUVECs (in words): 200 nM compound; for reduction of the uptake of ox-LDL by HUVECs: 200 nM concentration
Procedure: FIG. 3A, FIG. 3B, FIG. 3C and FIG. 3D depict the inhibitory effect of the lead compounds on Dil-ox-LDL uptake by HUVECs and CHO cells (measured by flow cytometry) and the effect of the lead compounds on ox-LDL-induced LOX-1 mRNA and protein expression. (FIG. 3A) (Upper Panel) Flow cytometry measurements using HUVECs in the presence of the five lead compounds (Mol-1-Mol-5), each a at 200 nM concentration. (Lower Panel) The percentage of internalized ox-LDL. Graphs show data as mean (±SD); n=4. *P<0.01 or <0.05 vs. control. (FIG. 3B) IC50 value for Mol-5. IC50 value (in nM) is based on inhibition of Dil-ox-LDL uptake in CHO cells overexpressing human LOX-1. Graphs show data as mean (±SD); n=5. *P<0.01 or <0.05 vs. control. (FIG. 3C) Western blotting assay showing LOX-1 protein expression in HUVECs following incubation with 200 nM Mol-1 to Mol-5 for 30 min, and subsequently exposure to 5 μg/mL ox-LDL for 6 hours. (FIG. 3D) The variation of LOX-1 mRNA expression levels at different concentrations of the compounds following exposure of HUVECs to 5 μg/mL ox-LDL. The concentrations are indicated on the X-axis and the LOX-1 mRNA levels are shown on the Y-axis. The plots for all the five molecules are shown in separate colors. Graphs show data as mean (±SD); n=3. *P<0.01 vs. control; #P<0.01 vs. ox-LDL group.
For further characterization, human endothelial cells and fluorescently-labeled Dil-ox-LDL were used for measuring initiation of atherogenic process based on interaction of vascular wall with ox-LDL. Ox-LDL uptake by human umbilical vein endothelial cells (HUVECs) was measured after exposure to 200 nM of each compound using flow cytometry. […] The dose response to modulation of ox-LDL uptake by Mol-5 (0, 20, 200 and 2000 nM) was also measured in CHO cells overexpressing human LOX-1. […] A second dose response curve was conducted to narrow in on the effect of lower concentrations of Mol-5 on ox-LDL uptake (FIG. 6A). Using this information the EC50 was estimated to be […] (FIG. 6B).
The primary HUVECs were purchased from ATCC (Manassas, Va.) and cultured in vascular cell basal medium with supplements (including 10 mL fetal bovine serum, 10 mM L-glutamine, 0.5 tg hydrocortisone hem isuccinate, 25 tg ascorbic acid, 2.5 ng rhVEGF, 2.5 ng rhEGF, 2.5 ng rh FGF, 7.5 ng rhIGF-1 and 0.375 units heparin sulfate). Cells from passages 3 and 4 were used in this study.
HUVECs were plated into 6-well plates and cultured until the cells reached 70% confluence. The cells were exposed to […] Dil-ox-LDL for 30 min after treatment with 200 nM of each of 5 molecules for 30 min, and then washed with PBS for 3 times. After washing, the cells were digested with trypsin and washed with PBS, and suspended in 400 tL PBS, and analyzed with a flow-cytometer (Becton Dickinson, Mountain View, Calif.). For further confirm the inhibitory effects of Mol-5 on Dil-ox-LDL uptake, we also measured Dil-ox-LDL uptake by CHO cells after exposure to […] Mol-5 for 30 min. The CHO cells were stably transfected with human LOX-1 cDNA.

VCAM-1 mRNA = experiment: ox-LDL-induced VCAM-1 mRNA expression in HUVECs (q-PCR); details: 5 μg/mL ox-LDL for 6 hrs
Procedure: FIG. 4A, FIG. 4B, FIG. 4C, FIG. 4D and FIG. 4E depict the effect of lead molecules on ox-LDL-induced the activation of MAPKs in HUVECs, VCAM-1 expression and monocyte adhesion onto HUVECs. […] (FIG. 4B) Western blot analyses showing phospho-p38MAPK expression in HUVECs following exposure to 200 nM of each compound for 30 min, and subsequently exposed to 5 μg/mL ox-LDL for 6 hours. […] (FIG. 4D) The variation of VCAM-1 mRNA expression levels with different concentrations of the led compounds. The concentrations are indicated on the X-axis and the VCAM-1 mRNA levels are shown on the Y-axis. The plots for all five molecules are shown in separate colors. […]
It is known that the activation of LOX-1 by ox-LDL in endothelial cells stimulates the expression of leukocyte adhesion molecules^26. In this study, VCAM-1 expression in HUVECs in the presence of 5 μg/ml ox-LDL was measured. […] VCAM-1 mRNA expression in HUVECs exposed to 5 μg/mL ox-LDL for 6 hrs was also measured.
HUVECs were plated into 12-well plates, and treated with 0, 20, 200 and 2000 nM of each of 5 molecules […] for 30 min, and subsequently exposed to […] ox-LDL for 6 h at 37° C. […] Data was analyzed by using MX3000P software. Relative mRNA expression was quantified using the comparative threshold cycle (Ct) method. […]

| SMILES | reduction of monocyte adhesion [1] [%] | effect on monocyte adhesion to HUVECs (in words) [1] | effect on ox-LDL uptake by HUVECs (in words) (HUVECs) | reduction of the uptake of ox-LDL by HUVECs (HUVECs) | effect on ox-LDL-mediated VCAM-1 mRNA upregulation (VCAM-1 mRNA) |
| --- | --- | --- | --- | --- | --- |
| CCOCCCNC(=O)CCN1C(=O)COc2ccccc21 [Mol-1] | 25 | decreased the number of monocytes adherent to HUVECs; also recorded: markedly inhibited | moderate inhibitory effect | about 35% | – |
| CC(C)(C)C(=O)NCCc1nc2ccccc2n1Cc1ccccc1F [Mol-2] | – | – | no significant effect | – | – |
| CCCn1c(CCNC(=O)CCCO)nc2ccccc21 [Mol-4] | 30 | decreased the number of monocytes adherent to HUVECs; also recorded: markedly inhibited | significantly and potently inhibited | 65% | significantly reduced; also recorded: significantly inhibited |
| Cc1cc(C)n(CC(O)COc2ccccc2)n1 (stereo not drawn) [Mol-5, 1-(3,5-dimethyl-1H-pyrazol-1-yl)-3-phenoxypropan-2-ol] | 35 | decreased the number of monocytes adherent to HUVECs; also recorded: markedly inhibited | significantly and potently inhibited; also recorded: maximum inhibitory effect | 80% | significantly reduced; also recorded: significantly inhibited |
